As usually defined, the IC50 is the concentration needed to halve the response being measured. The low end stands for higher potency, the high end for lower potency.

This assay has as its target T1, 3-phosphoinositide-dependent protein kinase 1 (Homo sapiens, UniProt O15530).
T1 sequence (O15530 whole entry): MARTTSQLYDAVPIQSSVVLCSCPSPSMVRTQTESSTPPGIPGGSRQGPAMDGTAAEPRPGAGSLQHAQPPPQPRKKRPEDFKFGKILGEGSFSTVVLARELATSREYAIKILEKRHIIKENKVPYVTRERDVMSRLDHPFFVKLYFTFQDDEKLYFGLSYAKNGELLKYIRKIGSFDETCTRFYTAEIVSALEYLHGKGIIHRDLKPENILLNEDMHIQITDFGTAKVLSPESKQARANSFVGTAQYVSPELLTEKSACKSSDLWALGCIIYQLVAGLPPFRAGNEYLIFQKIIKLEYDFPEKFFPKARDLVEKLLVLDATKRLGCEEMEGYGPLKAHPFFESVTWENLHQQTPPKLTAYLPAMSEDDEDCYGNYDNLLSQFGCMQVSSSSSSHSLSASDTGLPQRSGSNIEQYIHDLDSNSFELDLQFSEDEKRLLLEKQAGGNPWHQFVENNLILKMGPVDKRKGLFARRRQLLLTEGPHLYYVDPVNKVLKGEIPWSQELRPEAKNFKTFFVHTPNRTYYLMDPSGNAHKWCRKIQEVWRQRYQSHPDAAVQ
As to the kind of experiment: In Vitro Kinase Assay. The conditions noted are these: pH 7.5; 30 °C. The text has this:
PDK1 protein kinase was expressed in Sf9 insect cells as human recombinant GST-fusion protein by means of the baculovirus expression systems. Protein kinase assay (33PanQinase assay) was used for measuring the kinase activity of PDK1.

For `O=Nc1c(C2C(=O)Nc3ccc(Br)cc32)[nH]c2ccccc12` (configuration not stated) [5BIO], the IC50 is more than 100 µM.
`O=Nc1c(C2C(=O)Nc3ccccc32)[nH]c2ccccc12` (configuration not stated) [Indirubin-3 -monoxime] registered an IC50 of more than 100 µM.
